Reference: patent publication US20230335758A1, “REDOX FLOW BATTERY” (University of Massachusetts, priority 2022, published 2023)

Legend:
[1] = Solubility of AQS ionic derivatives in MeCN, measured by UV-vis (Beer's law); type: physicochemical; details: cooled to room temperature after stirring at 40° C.
Excerpt: Beer's law was used to measure the concentration of the solution using pre-determined molar extinction coefficient using standard calibration curve.

[2] = vs. SHE in DMSO; cited from earlier work
[3] = vanadium(iv) ion chelation; cited from earlier work
[4] = Cyclic voltammetry of AQS (Randles-Sevcik analysis); type: physicochemical
Procedure: Cyclic voltammetry was performed at room temperature in inert atmosphere of dinitrogen using three electrode cell on a VersaSTAT3 workstation. (Princeton Applied Research, USA). Glassy carbon (3 mm, Basi) was employed as working electrode and platinum wire was used as counter electrode. Ag wire was used as pseudo reference electrode with Fc/Fc^+ couple as an internal standard for initial redox potential evaluation. Subsequently, all potentials were referenced to SHE. Diffusion coefficient was calculated using Randles-Sevcik equation as follow.
where, ip is the peak current, n is number electron in redox reaction, F is faraday constant, A is geometrical surface area of electrode, C is the bulk concentration of analyte, ν is scan rate, D is diffusion coefficient and R and T are gas constant and absolute temperature. CV curves were obtained at various scan rate and peak current were plotted against square root of scan rate. Slope (m) of the linear fit was used to determine diffusion coefficient using following equation.

O=C1c2ccccc2C(=O)c2cc(S(=O)(=O)[O-])ccc21.[Na+] [NaAQS, sodium anthraquinone-2-sulfonate, reference compound]
solubility at 15 min ([1]; MeCN (acetonitrile), organic solvent or mixture, thermodynamic from solid): < 1 mM

CCCC[N+](CCCC)(CCCC)CCCC.O=C1c2ccccc2C(=O)c2cc(S(=O)(=O)[O-])ccc21 [N4444AQS]
Solubility [1]: 1260 mM

vanadium(IV/V)bis-hydroxyiminodiacetate [VBH]
E° (standard potential) [2]: 0.30 V

CC[N+](CC)(CC)CC.O=C1c2ccccc2C(=O)c2cc(S(=O)(=O)[O-])ccc21 [N2222AQS]
Solubility [1]: 105 mM

C[C@@H](C(=O)[O-])N(O)[C@@H](C)C(=O)[O-].C[C@@H](C(=O)[O-])N(O)[C@@H](C)C(=O)[O-].[V+4] [Amavadin]
log equilibrium constant (log Keq), stability constant [3]: 23

CCC[N+](CCC)(CCC)CCC.O=C1c2ccccc2C(=O)c2cc(S(=O)(=O)[O-])ccc21 [N3333AQS]
Solubility [1]: 640 mM

O=C1c2ccccc2C(=O)c2cc(S(=O)(=O)O)ccc21 [AQS, Anthraquinone 2-sulfonate]
diffusion coefficient ([4]; CV at various scan rates, Randles-Sevcik plot): 8.46×10^−6 cm^2 s^−1
potential of first electrochemically reversible wave (1^−/2^− couple) ([4]; vs SHE): −0.6 V
potential of second electrochemically reversible wave (2^−/3^− couple) ([4]; vs SHE): −1.2 V

O=C1c2ccccc2C(=O)c2ccccc21 [AQ, reference compound]
Solubility [1]: <5 mM
